Measurements reported in paper PMC8496750, “Identification of the organic anion transporting polypeptides responsible for the hepatic uptake of the major metabolite of epyrifenacil, S‐3100‐CA, in mice” (Pharmacology Research & Perspectives, 2021).

Legend:
[1] = molecular target: T1, mouse Oatp1a1 (Mus musculus, UniProt Q9QXZ6); experiment: in vitro; conditions: 293FT cells transiently transfected with mouse Oatp1a1, probe radiolabeled S‐3100‐CA
T1 sequence (Q9QXZ6 1-670): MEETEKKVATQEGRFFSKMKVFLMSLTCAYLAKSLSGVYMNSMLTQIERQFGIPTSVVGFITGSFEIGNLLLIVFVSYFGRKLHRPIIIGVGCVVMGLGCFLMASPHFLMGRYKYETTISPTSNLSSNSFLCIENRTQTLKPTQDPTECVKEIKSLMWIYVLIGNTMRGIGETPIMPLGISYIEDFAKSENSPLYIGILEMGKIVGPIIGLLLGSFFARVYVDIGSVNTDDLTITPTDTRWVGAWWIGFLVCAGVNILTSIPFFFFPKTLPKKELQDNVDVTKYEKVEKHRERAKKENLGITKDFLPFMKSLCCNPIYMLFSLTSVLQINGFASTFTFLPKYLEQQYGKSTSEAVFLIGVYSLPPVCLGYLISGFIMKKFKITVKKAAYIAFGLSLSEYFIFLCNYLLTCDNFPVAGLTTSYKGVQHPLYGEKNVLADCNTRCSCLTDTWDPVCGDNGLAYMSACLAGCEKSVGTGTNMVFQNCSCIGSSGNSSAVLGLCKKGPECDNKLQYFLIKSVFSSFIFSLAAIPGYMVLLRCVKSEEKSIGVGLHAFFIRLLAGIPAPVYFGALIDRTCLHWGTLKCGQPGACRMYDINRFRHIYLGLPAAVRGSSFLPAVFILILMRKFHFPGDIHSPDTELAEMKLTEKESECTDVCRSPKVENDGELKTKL
Experimental: (§1) Transport experiments were conducted approximately 24 h post‐transfection. The experiments were initiated by aspirating culture medium and addition of pre‐warmed radiolabeled substrate solution (final 1.0% of acetonitrile or 0.9% of ethanol in phosphate‐buffered saline (PBS[−])) to each well. After a 10‐min incubation, cells were washed twice with 1 ml of ice‐cold PBS(−) and lysed with 700 μl of 1.0 M NaOH for 3 h or more at room temperature. The lysate was transferred to a 1.5‐ml tube, and neutralized with 350 μl of 2.0 M HCl and 350 μl of 2.0% sodium dodecyl sulfate (SDS) solution. From the lysate, 1.0 ml was transferred to a vial containing 10 ml of Emulsifier Scintillator Plus to measure the radioactivity in the LSC. The protein concentration of the cell lysate was also measured using a Pierce™ BCA Protein Assay Kit (Thermo Fisher Scientific, Inc.), which was used to normalize, according to the cell number, the radioactivity in the cell lysate extract. The protein assay was performed in duplicate. Each sample type was assayed in triplicate wells, and each run was performed twice. […] Each sample type was assayed in triplicate wells.

[2] = molecular target: T2, mouse Oatp1a4 (Mus musculus, UniProt Q9EP96); experiment: in vitro; conditions: 293FT cells transiently transfected with mouse Oatp1a4, probe radiolabeled S‐3100‐CA
T2 sequence (Q9EP96 1-670): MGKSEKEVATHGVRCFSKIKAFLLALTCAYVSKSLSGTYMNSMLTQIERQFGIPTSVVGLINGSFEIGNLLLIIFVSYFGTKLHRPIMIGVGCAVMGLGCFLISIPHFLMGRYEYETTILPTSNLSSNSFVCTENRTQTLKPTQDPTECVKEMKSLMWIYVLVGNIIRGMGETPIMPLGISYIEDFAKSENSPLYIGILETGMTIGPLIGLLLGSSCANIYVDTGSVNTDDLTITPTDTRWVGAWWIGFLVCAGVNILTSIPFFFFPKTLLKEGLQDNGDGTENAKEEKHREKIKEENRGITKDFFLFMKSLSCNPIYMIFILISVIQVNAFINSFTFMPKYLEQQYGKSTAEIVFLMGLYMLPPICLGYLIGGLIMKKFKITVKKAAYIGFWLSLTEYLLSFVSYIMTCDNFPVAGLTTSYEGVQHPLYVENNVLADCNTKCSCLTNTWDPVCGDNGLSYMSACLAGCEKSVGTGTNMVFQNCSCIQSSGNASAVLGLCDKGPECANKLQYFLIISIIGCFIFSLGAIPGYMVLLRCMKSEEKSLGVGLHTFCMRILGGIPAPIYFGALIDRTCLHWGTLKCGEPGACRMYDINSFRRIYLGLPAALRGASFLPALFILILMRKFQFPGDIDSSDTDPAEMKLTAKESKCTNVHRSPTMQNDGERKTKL
Experimental: as §1

[3] = test system: various OATPs; experiment: Inhibition of S‐3100‐CA uptake by OATP inhibitors, various OATPs; format: in vitro ADME, mouse, human; conditions: inhibitor at 100 μM
Experimental: 293FT cells were purchased from Thermo Fisher Scientific, Inc.. The cells were grown in Dulbecco's modified Eagle medium (supplemented with 4.5 g/L glucose and 2 mM L‐glutamine) at 37°C, 5% CO2, and 95% humidity. The cells were passaged 3 times per week by harvesting cells using trypsin and plating at a density of 1.0 × 10^4 cells/cm^2 in a 10 cm cell culture plate for maintenance culture. The 293FT cells were detached using trypsin and re‐seeded at a density of 2.5 × 10^4 cells/cm^2 in BioCoat™ Collagen I 6‐well plates (Corning Inc.) for transfection and then treated with 1.2 μg of plasmid vector and 3.2 μl of Lipofectamine™ 2000 Transfection Reagent (Thermo Fisher Scientific, Inc.) according to the manufacturer's instructions. After a 3‐h treatment, the transfection medium was replaced with a fresh cell culture medium and incubated at 37°C with 95% humidity and 5% CO2 until ready for the assay.
Transport experiments were conducted approximately 24 h post‐transfection. […] From the lysate, 1.0 ml was transferred to a vial containing 10 ml of Emulsifier Scintillator Plus to measure the radioactivity in the LSC. The protein concentration of the cell lysate was also measured using a Pierce™ BCA Protein Assay Kit (Thermo Fisher Scientific, Inc.), which was used to normalize, according to the cell number, the radioactivity in the cell lysate extract. […]

inhibition at 10 min, 10 µM [1]: > 50%
inhibition at 10 min, 10 µM [2]: > 50%
SMILES: CO[C@H]1/C=C/O[C@@]2(C)Oc3c(C)c(O)c4c(O)c(cc(O)c4c3C2=O)NC(=O)/C(C)=C\C=C\[C@H](C)[C@H](O)[C@@H](C)[C@@H](O)[C@@H](C)[C@H](OC(C)=O)[C@@H]1C [RSV, rifamycin SV]
Inhibition of S‐3100‐CA uptake (in words) [3]: inhibited uptake via all OATPs other than human OATP2B1
